Patent publication US20030229053A1, “Compounds and methods for the treatment or prevention of flavivirus infections” (Shire BioChem Inc., priority 2001, published 2003)
pIC50: −log10 of the molar value. Where two headings read alike, the source gives them in different places.

Biological target: HCV NS5B RNA-dependent RNA polymerase (Hepatitis C virus genotype 1b, UniProt P26663)
Test: In vitro RNA-dependent RNA polymerase assay (Assay 1), polyA/oligo dT, TCA precipitation
Type: biochemical
Description: Purification of Recombinant NS5B Using Fast Protein Liquid Chromatography (FPLC):
Soluble NS5B protein in the S3 fraction was diluted to lower the NaCl concentration to 300 mM, then it incubated batchwise with DEAE sepharose beads (Amersham-Pharmacia) for 2 hrs at 4° C., as described by Behrens et al. (1996). Unbound material was cleared by centrifugation for 15 min at 4° C., at 25,000 rpm using a SW41 rotor (Beckman). The supernatant was further diluted to lower the NaCl concentration to 200 mM and subsequently loaded, with a flow rate of 1 ml/min, on a 5 ml HiTrap® heparin column (Amersham-Pharmacia) connected to an FPLC® system (Amersham-Pharmacia). Bound proteins were eluted in 1 ml fractions, using a continuous NaCl gradient of 0.2 to 1 M, over a 25 ml volume. NS5B-containing fractions were identified by sodium dodecyl sulfate polyacrylamide gel electrophoresis (SDS-PAGE), followed by western blotting using the anti-NS5B antiserum at a dilution of 1:2000. Positive fractions were pooled and the elution buffer was exchanged against a 50 mM NaPO4 pH 7.0, 20% glycerol, 0.5% triton X-100 and 10 mM DTT, using a PD-10 column (Amersham-Pharmacia). The sample was then loaded onto a 1 ml HiTrap® SP column (Amersham-Pharmacia), with a flow rate of 0.1 ml/min. Bound proteins were eluted using a continuous 0 to 1 M NaCl gradient over a 15 ml volume. Eluted fractions were analyzed by SDS-PAGE and western blotting. Alternatively, proteins were visualized, following SDS-PAGE, by silver staining using the Silver Stain Plus kit (BioRad) as described by the manufacturer. […]
In vitro RNA-dependent RNA Polymerase Assays Used to Evaluate Biaryl Analogues (Assay 1):
RdRp assays were conducted using the homopolymeric template/primer polyA/oligo dT. All RdRp reactions were performed in a total volume of 50 μl, and in a basic buffer consisting of 20 mM Tris-HCl pH 7.5, 1 mM DTT, 50 mM NaCl, 5 mM MgCl2, 0.5 μCi […] (3000 Ci/mmol), 15 μM cold UTP and 20 U RNasin (Promega). Standard HCV RdRp reactions contained 200 ng of purified NS5B protein. PolyA RNAs (Amersham-Pharmacia) was resuspended at 400 ng/μl. The primer oligodT15 (Canadian life technologies) was diluted to a concentration of […] (7.6 ng/μl). Templates and primers were mixed volume to volume, denatured at 95° C. for 5 min and annealed at 37° C. for 10 min. Following a two hour incubation at 22° C., reactions were stopped by the addition of 100 μg of sonicated salmon sperm DNA (Life Technologies) and 1 ml of 10% trichloroacetic acid-0.5% tetrasodium pyrophosphate (TCA-PPi). Nucleic acids were precipitated at 4° C. for 30 min after which samples were filtered on GF/C glass microfiber filters (Millipore). Membranes were subsequently washed with 25 ml of a 1% TCA-0.1% PPi solution, then air dried. Incorporated radioactivity was quantified using a liquid scintillation counter (1450-Microbeta, Wallac). Results are shown in Table 1, in the column indicated as Assay 1.

[1] = polyA/oligo dT template/primer, 200 ng NS5B, 2 h at 22° C., read-out: RNA pol Assay 1 IC50 (μm)

Chain of HCV NS5B RNA-dependent RNA polymerase (P26663 2420-3010 limits assumed): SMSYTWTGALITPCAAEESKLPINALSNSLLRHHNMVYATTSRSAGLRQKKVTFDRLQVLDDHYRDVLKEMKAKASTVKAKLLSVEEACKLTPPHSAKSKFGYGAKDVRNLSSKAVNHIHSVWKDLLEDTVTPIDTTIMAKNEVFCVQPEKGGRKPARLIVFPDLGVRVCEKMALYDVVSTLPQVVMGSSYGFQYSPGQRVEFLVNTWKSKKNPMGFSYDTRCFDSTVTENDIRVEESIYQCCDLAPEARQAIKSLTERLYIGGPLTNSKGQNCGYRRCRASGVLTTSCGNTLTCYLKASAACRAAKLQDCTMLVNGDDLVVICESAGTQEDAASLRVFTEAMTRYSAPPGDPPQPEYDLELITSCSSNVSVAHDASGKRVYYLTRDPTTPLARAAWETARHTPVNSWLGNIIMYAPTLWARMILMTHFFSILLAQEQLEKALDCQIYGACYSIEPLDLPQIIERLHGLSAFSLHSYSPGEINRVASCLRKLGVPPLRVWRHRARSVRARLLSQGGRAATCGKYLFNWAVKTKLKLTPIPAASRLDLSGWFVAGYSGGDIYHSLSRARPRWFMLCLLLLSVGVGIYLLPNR

pIC50 [1] | SMILES | pIC50
> 5.30 | O=C(O)C(Cc1ccccc1)N(Cc1ccc(-c2cc3ccccc3o2)cc1)C(=O)c1ccc(Cl)cc1Cl (stereo in doubt) [compound #4, (2s)-2-[(4-Benzofuran-2-yl-benzyl)-(2,4-dichloro-benzoyl)-amino]-3-phenyl-propionic acid] | 
> 5.30 | COc1cc(C)c(S(=O)(=O)N(Cc2ccc(-c3cc4ccccc4o3)cc2)C(Cc2ccccc2)C(=O)O)c(C)c1C (stereo in doubt) [compound #6, (2s)-2-[(4-Benzofuran-2-yl-benzyl)-(4-methoxy-2,3,6-trimethyl-benzenesulfonyl)-amino]-3-phenyl-propionic acid] | 
4.70 to 5.30 | C=CCN(C(=O)c1ccc(Cl)cc1I)C(Cc1ccccc1)C(=O)O (stereo not drawn) [Compound #27, 2-[Allyl-(4-chloro-2-iodo-benzoyl)-amino]-3-phenyl-propionic acid] | 
4.70 to 5.30 | O=C(O)CC(c1cccs1)N(Cc1ccc(-c2cccs2)cc1)C(=O)Nc1cc(Cl)nc(Cl)c1 (stereo not drawn) [compound #1, 3-[3-(2,6-Dichloro-pyridin-4-yl)-1-(4-thiophen-2-yl-benzyl)-ureido]-3-thiophen-2-yl-propionic acid] | 
> 5.30 | O=C(O)[C@H](Cc1ccccc1)N(Cc1ccc(-c2nccs2)cc1)C(=O)c1ccc(Cl)cc1Cl [compound #2, (2s)-2-[(2,4-Dichloro-benzoyl)-(4-thiazol-2-yl-benzyl)-amino]-3-phenyl-propionic acid] | 
> 5.30 | O=C(O)[C@H](Cc1ccccc1)N(Cc1ccc(Br)cc1)C(=O)c1ccc(Cl)cc1Cl [compound #3, (2s)-2-[(4-Bromo-benzyl)-(2,4-dichloro-benzoyl)-amino]-3-phenyl-propionic acid] | 
> 5.30 | COc1cc(C)c(S(=O)(=O)N(Cc2ccc(-c3cc4ccccc4o3)cc2)[C@@H](Cc2ccccc2)C(=O)O)c(C)c1C [compound #5, (2s)-2-[(4-Benzofuran-2-yl-benzyl) -(4-methoxy-2,3,6-trimethyl-benzenesulfonyl)-amino]-3-phenyl-propionic acid] | 
> 5.30 | COc1cc(C)c(S(=O)(=O)N(Cc2cccc(-c3cc4ccccc4o3)c2)[C@@H](Cc2ccccc2)C(=O)O)c(C)c1C [compound #7, (2s)-2-[(3-Benzofuran-2-yl-benzyl)-(4-methoxy-2,3,6-trimethyl-benzenesulfonyl)-amino]-3-phenyl-propionic acid] | 
4.70 to 5.30 | CCOC(=O)CC(c1cccs1)N(Cc1ccc(I)cc1)S(=O)(=O)c1c(C)cc(OC)c(C)c1C (stereo not drawn) [compound #8, 3-[(4-Iodo-benzyl)-(4-methoxy-2,3,6-trimethyl-benzenesulfonyl)-amino]-3-thiophen-2-yl-propionic acid ethyl ester] | 
 | O=C(O)[C@H](Cc1ccccc1)N(Cc1cccc(Br)c1)C(=O)c1ccc(Cl)cc1Cl [compound #9, (2s)-2-[(3-Bromo-benzyl)-(2,4-dichloro-benzoyl)-amino]-3-phenyl-propionic acid] | > 5.30
< 4.70 | O=C(O)[C@H](Cc1ccccc1)N(Cc1cccc(Br)c1)C(=O)c1ccccc1Cl [compound #10, (2s)-2-[(3-Bromo-benzyl)-(2-chloro-benzoyl)-amino]-3-phenyl-propionic acid] | 
4.70 to 5.30 | O=C(O)[C@H](Cc1ccccc1)N(Cc1cccc(-c2cc3ccccc3o2)c1)C(=O)c1ccc(Cl)cc1Cl [compound #11, (2s)-2-[(3-Benzofuran-2-yl-benzyl)-(2,4-dichloro-benzoyl)-amino]-3-phenyl-propionic acid] | 
4.70 to 5.30 | O=C(O)[C@H](Cc1ccccc1)N(Cc1ccc(I)cc1)C(=O)c1ccc(Cl)cc1Cl [compound #12, (2s)-2-[(2,4-Dichloro-benzoyl)-(4-iodo-benzyl)-amino]-3-phenyl-propionic acid] | 
4.70 to 5.30 | COc1cc(C)c(S(=O)(=O)N(Cc2cccc(I)c2)[C@@H](Cc2ccccc2)C(=O)O)c(C)c1C [compound #13, (2s)-2-[(3-Iodo-benzyl)-(4-methoxy-2,3,6-trimethyl-benzenesulfonyl)-amino]-3-phenyl-propionic acid] | 
4.70 to 5.30 | COc1cc(C)c(S(=O)(=O)N(Cc2ccc(Br)cc2)[C@@H](Cc2ccccc2)C(=O)O)c(C)c1C [compound #14, (2s)-2-[(4-Bromo-benzyl)-(4-methoxy-2,3,6-trimethyl-benzenesulfonyl)-amino]-3-phenyl-propionic acid] | 
 | O=C(O)[C@H](Cc1ccccc1)N(Cc1cccc(Br)c1)C(=O)c1ccc(Cl)cc1 [compound #15, (2s)-2-[(3-Bromo-benzyl)-(4-chloro-benzoyl)-amino]-3-phenyl-propionic acid] | 4.70 to 5.30
4.70 to 5.30 | COc1cc(C)c(S(=O)(=O)N(Cc2ccc(I)cc2)[C@@H](Cc2ccccc2)C(=O)O)c(C)c1C [compound #16, (2s)-2-[(4-Iodo-benzyl)-(4-methoxy-2,3,6-trimethyl-benzenesulfonyl)-amino]-3-phenyl-propionic acid] | 
4.70 to 5.30 | COc1cc(C)c(S(=O)(=O)N(Cc2cccc(Br)c2)[C@@H](Cc2ccccc2)C(=O)O)c(C)c1C [compound #17, (2s)-2-[(3-Bromo-benzyl)-(4-methoxy-2,3,6-trimethyl-benzenesulfonyl)-amino]-3-phenyl-propionic acid] | 
< 4.70 | COC(=O)c1ccc(-c2ccc(CN([C@@H](Cc3ccccc3)C(=O)O)S(=O)(=O)c3c(C)cc(OC)c(C)c3C)cc2)o1 [compound #18, (2s)-5-(4-{[(1s-1-Carboxy-2-phenyl-ethyl)-(4-methoxy-2,3,6-trimethyl-benzenesulfonyl)-amino]-methyl}-phenyl)-furan-2-carboxylic acid methyl ester] | 
< 4.70 | O=C(O)[C@H](Cc1ccccc1)N(Cc1cccc(Br)c1)C(=O)c1ccc(Cl)c(Cl)c1 [compound #19, (2s)-2-[(3-Bromo-benzyl)-(3,4-dichloro-benzoyl)-amino]-3-phenyl-propionic acid] | 
< 4.70 | O=C(O)[C@H](Cc1ccccc1)N(Cc1cccc(Br)c1)S(=O)(=O)c1ccc(Cl)cc1Cl [compound #20, (2s)-2-[(3-Bromo-benzyl)-(2,4-dichloro-benzenesulfonyl)-amino]-3-phenyl-propionic acid] | 
4.70 to 5.30 | O=C(O)[C@H](Cc1cn(Cc2ccccc2)cn1)N(Cc1cccc(Br)c1)C(=O)c1ccc(Cl)cc1Cl [compound #21, (2s)-3-(1-Benzyl-1h-imidazol-4-yl)-2-[(3-bromo-benzyl)-(2,4-dichloro-benzoyl)-amino]-propionic acid] | 
4.70 to 5.30 | O=C(O)[C@H](Cc1ccccc1)N(Cc1cccc(Br)c1)C(=O)Cc1ccc(Cl)cc1Cl [compound #22, (2s)-2-{(3-Bromo-benzyl)-[(2,4-dichloro-phenyl)-acetyl]-amino}-3-phenyl-propionic acid] | 
< 4.70 | COC(=O)c1ccc(-c2ccc(CN([C@@H](Cc3ccccc3)C(=O)O)S(=O)(=O)c3c(C)cc(OC)c(C)c3C)cc2)s1 [compound #23, (2s)-5-(4-{[(1s-1-Carboxy-2-phenyl-ethyl)-(4-methoxy-2,3,6-trimethyl-benzenesulfonyl)-amino]-methyl}-phenyl)-thiophene-2-carboxylic acid methyl ester] | 
4.70 to 5.30 | COc1cc(C)c(S(=O)(=O)N(Cc2ccccc2Br)[C@@H](Cc2ccccc2)C(=O)O)c(C)c1C [compound #24, (2s)-2-[(2-Bromo-benzyl)-(4-methoxy-2,3,6-trimethyl-benzenesulfonyl)-amino]-3-phenyl-propionic acid] | 
> 5.30 | Cc1ccc(C(=O)N(Cc2cccc(Br)c2)[C@@H](Cc2ccccc2)C(=O)O)c(C)c1 [compound #28, (2s)-2-[(3-Bromo-benzyl)-(2,4-dimethyl-benzoyl)-amino]-3-phenyl-propionic acid] | 
> 5.30 | Cc1ccc(C(=O)N(Cc2cccc(-c3cc4ccccc4o3)c2)[C@@H](Cc2ccccc2)C(=O)O)c(C)c1 [compound #31, (2s)-2-[(3-Benzofuran-2-yl-benzyl)-(2,4-dimethyl-benzoyl)-amino]-3-phenyl-propionic acid] | 
